Here are results for one compound from ChEMBL document CHEMBL1140394, “Inhibition of Src kinase activity by 7-[(2,4-dichloro-5-methoxyphenyl)amino]-2-heteroaryl-thieno[3,2-b]pyridine-6-carbonitriles” (Bioorg Med Chem Lett, 2005).

Each structure is given as a SMILES string. Bounds are passed on as bounds.

The target of assay [1] is Cyclin-dependent kinase 4 (Homo sapiens, UniProt P11802). As to the kind of experiment: Inhibitory activity against CDK4. It is filed as functional.
Assay [2] addresses T1, Proto-oncogene tyrosine-protein kinase Src (Homo sapiens, UniProt P12931). Kind of assay: Inhibitory activity against non-receptor tyrosine kinase Src in cell assay. The assay is classed as functional.
For assay [3], the target named is Serine/threonine-protein kinase AKT (Homo sapiens, UniProt P31751+Q9Y243+P31749). Kind of assay: Inhibitory activity against AKT. It is filed as functional.
Assay [4] deals with Serine/threonine-protein kinase RAF and Dual specificity mitogen-activated protein kinase kinase 1 (Raf/MEK) (Homo sapiens, UniProt P04049+Q02750). Kind of assay: Inhibitory activity against Raf/MEK. The assay is classed as functional.
The target in assay [5] is T1, Proto-oncogene tyrosine-protein kinase Src. Kind of assay: Inhibitory activity against non-receptor tyrosine kinase Src in enzyme assay.
The target in assay [6] is Inhibitor of NF-kappa-B kinase (IKK) (Homo sapiens, UniProt O14920+O15111+Q9Y6K9). Kind of assay: Inhibitory activity against IKK. The assay is classed as functional.
Assay [7] concerns the target T2, 3-phosphoinositide-dependent protein kinase 1 (Homo sapiens, UniProt O15530).
T2 sequence (O15530 whole entry): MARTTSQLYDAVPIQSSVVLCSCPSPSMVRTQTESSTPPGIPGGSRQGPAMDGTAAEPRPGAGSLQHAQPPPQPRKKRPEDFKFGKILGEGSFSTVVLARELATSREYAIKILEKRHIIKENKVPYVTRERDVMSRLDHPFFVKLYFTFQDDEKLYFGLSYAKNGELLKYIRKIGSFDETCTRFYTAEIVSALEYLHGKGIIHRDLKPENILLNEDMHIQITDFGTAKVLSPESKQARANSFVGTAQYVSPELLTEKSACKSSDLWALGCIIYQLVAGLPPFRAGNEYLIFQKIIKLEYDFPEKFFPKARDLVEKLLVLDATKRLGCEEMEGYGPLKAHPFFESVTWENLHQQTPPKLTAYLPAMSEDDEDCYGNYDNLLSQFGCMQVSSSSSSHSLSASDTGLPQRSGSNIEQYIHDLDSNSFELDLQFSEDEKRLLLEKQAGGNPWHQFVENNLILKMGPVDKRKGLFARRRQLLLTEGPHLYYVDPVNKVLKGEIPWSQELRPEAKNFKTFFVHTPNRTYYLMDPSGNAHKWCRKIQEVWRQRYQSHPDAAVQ
Kind of assay: Inhibitory activity against PDK1. It is filed as functional.

T1 sequence (P12931 2-536 limits assumed): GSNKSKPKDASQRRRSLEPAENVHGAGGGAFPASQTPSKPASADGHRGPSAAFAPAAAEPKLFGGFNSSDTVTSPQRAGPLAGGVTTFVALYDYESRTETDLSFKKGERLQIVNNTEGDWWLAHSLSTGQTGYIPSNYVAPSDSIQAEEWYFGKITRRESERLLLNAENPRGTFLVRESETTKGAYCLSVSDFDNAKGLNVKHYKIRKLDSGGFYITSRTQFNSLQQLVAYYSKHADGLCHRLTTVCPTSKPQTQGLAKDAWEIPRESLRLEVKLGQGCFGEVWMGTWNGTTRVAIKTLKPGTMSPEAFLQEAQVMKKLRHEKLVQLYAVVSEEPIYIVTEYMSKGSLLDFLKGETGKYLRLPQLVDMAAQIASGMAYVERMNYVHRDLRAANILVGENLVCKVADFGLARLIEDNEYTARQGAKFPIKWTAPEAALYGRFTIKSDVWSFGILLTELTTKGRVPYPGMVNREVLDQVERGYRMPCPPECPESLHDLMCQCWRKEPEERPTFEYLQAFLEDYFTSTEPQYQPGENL
Cyclin-dependent kinase 4, sequence (P11802 whole entry): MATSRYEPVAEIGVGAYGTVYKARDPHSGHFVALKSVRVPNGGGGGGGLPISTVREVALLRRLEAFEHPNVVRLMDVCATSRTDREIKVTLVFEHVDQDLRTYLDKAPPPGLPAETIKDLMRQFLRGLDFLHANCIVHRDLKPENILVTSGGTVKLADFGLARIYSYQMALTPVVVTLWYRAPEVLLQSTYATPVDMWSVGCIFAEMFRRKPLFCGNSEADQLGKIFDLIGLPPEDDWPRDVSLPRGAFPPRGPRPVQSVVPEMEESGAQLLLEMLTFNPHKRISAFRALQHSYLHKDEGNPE
Inhibitor of NF-kappa-B kinase (IKK), sequence (O14920 whole entry): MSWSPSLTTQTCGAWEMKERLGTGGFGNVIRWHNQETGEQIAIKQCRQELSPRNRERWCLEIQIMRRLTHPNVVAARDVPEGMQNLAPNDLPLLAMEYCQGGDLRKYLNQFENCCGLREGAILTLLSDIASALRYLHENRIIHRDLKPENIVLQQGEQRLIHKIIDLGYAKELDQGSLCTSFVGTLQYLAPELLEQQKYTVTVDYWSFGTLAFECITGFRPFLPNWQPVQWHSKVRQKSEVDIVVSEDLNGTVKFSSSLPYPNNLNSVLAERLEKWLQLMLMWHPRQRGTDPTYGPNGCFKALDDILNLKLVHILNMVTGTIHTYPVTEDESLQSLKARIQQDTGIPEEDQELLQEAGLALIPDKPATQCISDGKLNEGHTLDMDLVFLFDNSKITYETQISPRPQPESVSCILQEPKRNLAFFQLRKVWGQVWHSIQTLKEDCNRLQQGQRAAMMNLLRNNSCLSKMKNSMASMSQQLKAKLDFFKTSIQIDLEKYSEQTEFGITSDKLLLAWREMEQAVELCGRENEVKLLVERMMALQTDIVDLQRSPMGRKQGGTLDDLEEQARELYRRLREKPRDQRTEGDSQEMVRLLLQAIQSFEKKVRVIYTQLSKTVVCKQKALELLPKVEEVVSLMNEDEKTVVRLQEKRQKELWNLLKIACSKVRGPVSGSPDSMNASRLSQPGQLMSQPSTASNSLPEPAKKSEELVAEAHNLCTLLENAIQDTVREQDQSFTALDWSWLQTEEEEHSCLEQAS
Inhibitor of NF-kappa-B kinase (IKK), sequence (O15111 whole entry): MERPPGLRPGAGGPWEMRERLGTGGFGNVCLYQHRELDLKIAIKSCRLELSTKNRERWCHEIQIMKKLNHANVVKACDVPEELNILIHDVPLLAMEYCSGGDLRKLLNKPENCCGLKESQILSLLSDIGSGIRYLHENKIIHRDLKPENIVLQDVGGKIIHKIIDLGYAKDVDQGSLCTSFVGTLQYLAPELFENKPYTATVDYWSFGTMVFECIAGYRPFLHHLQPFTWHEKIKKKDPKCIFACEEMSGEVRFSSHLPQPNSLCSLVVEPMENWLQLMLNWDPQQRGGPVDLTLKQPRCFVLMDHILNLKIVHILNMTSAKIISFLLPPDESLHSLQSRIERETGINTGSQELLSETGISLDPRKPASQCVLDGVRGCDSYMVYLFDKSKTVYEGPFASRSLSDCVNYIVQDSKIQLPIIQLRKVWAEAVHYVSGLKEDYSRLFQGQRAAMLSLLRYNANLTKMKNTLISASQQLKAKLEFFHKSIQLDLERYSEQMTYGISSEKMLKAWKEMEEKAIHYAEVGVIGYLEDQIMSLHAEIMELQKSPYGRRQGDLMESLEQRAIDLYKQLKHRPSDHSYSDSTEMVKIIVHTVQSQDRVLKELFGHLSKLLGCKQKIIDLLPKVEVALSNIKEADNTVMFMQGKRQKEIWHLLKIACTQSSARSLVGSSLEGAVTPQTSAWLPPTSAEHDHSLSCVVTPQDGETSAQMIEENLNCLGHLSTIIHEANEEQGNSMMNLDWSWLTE
Inhibitor of NF-kappa-B kinase (IKK), sequence (Q9Y6K9 whole entry): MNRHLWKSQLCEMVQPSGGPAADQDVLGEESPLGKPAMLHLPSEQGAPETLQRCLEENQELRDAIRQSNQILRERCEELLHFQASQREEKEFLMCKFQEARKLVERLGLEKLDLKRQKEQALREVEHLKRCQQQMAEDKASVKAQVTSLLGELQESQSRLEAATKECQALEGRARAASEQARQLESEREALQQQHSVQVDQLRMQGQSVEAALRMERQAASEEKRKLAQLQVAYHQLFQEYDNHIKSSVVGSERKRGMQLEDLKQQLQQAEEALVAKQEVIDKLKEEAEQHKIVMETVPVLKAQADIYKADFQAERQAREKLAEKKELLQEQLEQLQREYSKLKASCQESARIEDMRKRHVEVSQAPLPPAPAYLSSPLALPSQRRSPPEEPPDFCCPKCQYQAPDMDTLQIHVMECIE

On to `COc1cc(Nc2c(C#N)cnc3cc(-c4ccc(CN5CCN(C)CC5)cn4)sc23)c(Cl)cc1Cl`, for which the half-maximal inhibitory concentration (IC50) was more than 10000 nM in assay [1]; 420 nM in assay [2]; more than 10000 nM in assay [3]; 1600 nM in assay [4]; 13 nM in assay [5]; more than 10000 nM in assay [6]. For the same compound, the half-maximal inhibitory concentration (IC50) in assay [7] was more than 10000 nM.

The IC50 is the concentration at which inhibition is half-maximal.
